# How the values were obtained:
# [1] = molecular target: T1, XO (Bos taurus, UniProt P80457); test: Conversion of DHNB to products by XO / reaction of XO and DHNB; type: biochemical, bovine; conditions: for conversion of inhibitor by XO after 20 h: pre-incubation with XO for 20 h
# T1 construct: Xanthine oxidase from bovine milk; purchased Sigma Chemical Co. (St. Louis, Mo.); host or cells: bovine milk
# Method: Negative electrospray ionization-mass spectrometry (ESI-MS) and tandem (MSMS) were applied to detect and confirm the reaction products of DHNB with XO. All mass spectrometric experiments were performed on an API 3200-Qtrap triple quadrupole mass spectrometer (Applied Biosystem/MDS SCIEX; Foster City, Calif.) equipped with a TurbolonSpray™ source. The main working parameters for mass spectrum were set as follows: ion-spray voltage, −4.5 kV; ion source temperature, 600° C.; gas 1, 40 psi; gas 2, 40 psi; curtain gas, 20 psi; collision gas, high.
# After that, the enzymatic activity of XO was recovered.
# [2] = Peroxynitrite scavenging assay; conditions: 25 μM ONOO−, pH 7.4 (FIG. 7C)
# Method: Peroxynitrite scavenging assay—Peroxynitrite (ONOO—) was generated by mixing 5 mL acidic solution (0.6 M HCl) of H2O2 (0.7 M) and 5 mL of 0.6 M KNO2 in an ice bath for 1 second and the reaction was quenched with 5 mL of ice-cold 1.2 M NaOH. Residual H2O2 was removed using granular MnO2 prewashed with 1.2 M NaOH and the reaction mixture was then left overnight at −20° C. Concentrations of ONOO^− were determined before each experiment at 302 nm using a molar extinction coefficient of 1,670 M^−1 cm^−1. The final concentrations of reagents used in the assay are as follows: 25 μM ONOO^−, 10 μM DTPA, 5 μM DHR 123, 0.1 M phosphate buffer, pH 7.4. The ONOO^− scavenging assay was performed by monitoring the oxidation of dihydrorhodamine (DHR 123) by ONOO^− spectrophotometrically at 500 nm. […] Vitamin C was used as a positive control. The concentration dependent effects of these compounds on ONOO^− scavenging were also studied and compared with that of vitamins C and E (FIG. 10).
# [3] = molecular target: xanthine oxidase (Bos taurus, UniProt P80457); conditions: for ability to inhibit XO at a concentration of 20 μM: compared with allopurinol (FIG. 2); for influence of pre-incubation with XO on XO inhibition: pre-incubation with XO 0 to 5 min at 25° C.; for time course of XO inhibition: XO (20 nM) added to xanthine (50 μM) and inhibitor (6.67 μM) to start the reaction; for XO activity after pre-incubation with inhibitor for 20 h: room temperature, DNSA 5 μM or 10 μM;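 on all read-outs here: xanthine oxidase activity read as the initial rate of uric acid production, with water serving as the negative control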
# Chain of xanthine oxidase (P80457 whole entry): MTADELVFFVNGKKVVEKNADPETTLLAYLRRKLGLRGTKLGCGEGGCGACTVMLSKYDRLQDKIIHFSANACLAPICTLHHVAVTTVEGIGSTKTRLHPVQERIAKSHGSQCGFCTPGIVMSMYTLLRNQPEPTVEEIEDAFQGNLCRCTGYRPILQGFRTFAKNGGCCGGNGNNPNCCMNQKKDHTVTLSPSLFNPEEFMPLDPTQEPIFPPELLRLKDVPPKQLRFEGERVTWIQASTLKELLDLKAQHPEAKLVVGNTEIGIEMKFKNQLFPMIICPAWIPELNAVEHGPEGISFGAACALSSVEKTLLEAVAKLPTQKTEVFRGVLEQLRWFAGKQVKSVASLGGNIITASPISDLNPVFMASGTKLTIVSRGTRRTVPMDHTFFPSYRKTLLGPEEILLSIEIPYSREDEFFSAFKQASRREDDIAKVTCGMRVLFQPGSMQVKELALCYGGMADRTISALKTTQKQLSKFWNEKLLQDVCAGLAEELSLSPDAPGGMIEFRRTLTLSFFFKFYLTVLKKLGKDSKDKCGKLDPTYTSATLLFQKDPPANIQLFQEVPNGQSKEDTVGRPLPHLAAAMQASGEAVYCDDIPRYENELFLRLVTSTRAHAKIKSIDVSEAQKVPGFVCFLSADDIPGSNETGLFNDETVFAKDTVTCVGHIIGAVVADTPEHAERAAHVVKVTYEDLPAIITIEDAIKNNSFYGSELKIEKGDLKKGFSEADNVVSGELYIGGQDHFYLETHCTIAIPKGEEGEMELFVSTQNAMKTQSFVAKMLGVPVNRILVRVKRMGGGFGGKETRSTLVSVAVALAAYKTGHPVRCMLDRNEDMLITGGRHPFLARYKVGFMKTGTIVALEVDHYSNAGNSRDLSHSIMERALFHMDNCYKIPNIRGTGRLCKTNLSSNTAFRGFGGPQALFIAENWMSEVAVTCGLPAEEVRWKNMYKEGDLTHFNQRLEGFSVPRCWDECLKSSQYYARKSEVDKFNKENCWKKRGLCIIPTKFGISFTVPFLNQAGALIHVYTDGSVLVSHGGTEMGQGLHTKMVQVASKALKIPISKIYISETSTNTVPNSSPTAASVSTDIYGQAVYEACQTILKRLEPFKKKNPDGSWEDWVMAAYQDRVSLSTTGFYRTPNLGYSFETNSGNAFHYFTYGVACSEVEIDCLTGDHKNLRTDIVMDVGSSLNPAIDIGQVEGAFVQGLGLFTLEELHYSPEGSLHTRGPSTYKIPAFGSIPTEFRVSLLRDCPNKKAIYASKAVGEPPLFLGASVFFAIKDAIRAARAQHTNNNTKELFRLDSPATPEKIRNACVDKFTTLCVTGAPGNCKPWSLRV
# [4] = HOCl scavenging assay; conditions: 20 μM, compared with vitamin C
# Method: HOCl scavenging assay—HOCl was prepared immediately before use by adjusting the pH of a 1% (v/v) solution of NaOCl to pH 6.2 with 0.6 M sulfuric acid. The concentration was further determined spectrophotometrically at 235 nm using the molar extinction coefficient of 100 M^−1 cm^−1. 5-Thio-2-nitrobenzoic acid (TNB) was prepared by reducing 5,5′-dithio-bis(2-nitrobenzoic acid) (DTNB) with sodium borohydride in phosphate buffer. The final concentrations of reagents used in the assay are as follows: 25 μM HOCl, 70 μM TNB, 0 to 200 μM antioxidants, phosphate buffer, 50 mM, pH 6.6. The HOCl scavenging assay was based on the inhibition of TNB oxidation to DTNB induced by HOCl.
# [5] = DPPH scavenging assay; conditions: 20 μM compound, 100 μM DPPH, compared with vitamin C
# Method: DPPH scavenging assay—The abilities of the polyphenols described herein to scavenge the DPPH radical were measured optically by monitoring the decreases of their absorptions at […]. […] DPPH was used at a concentration of 100 μM. Their scavenging activities were compared with that of vitamin C.
# [6] = tested on: mouse; conditions: oral administration once; cited from earlier work
# [7] = tested on: allantoxanamide induced hyperuricemic mice; test: Hypouricemic effect in allantoxanamide induced hyperuricemic mice; type: in vivo; conditions: for serum urate levels: 100 mg/kg oral before allantoxanamide injection
# Method: A hyperuricemia mouse model was used. Allantoxanamide, a potent uricase inhibitor, was used to induce hyperuricemia in mice in this study. […] The mice were subsequently intraperitoneally injected with allantoxanamide at 200 mg/kg in 0.5% CMC-Na in a volume of 0.1 ml/10 g mouse body weight just after the tested drug oral administration to increase the serum uric acid level. […] The negative control mice were administered PEG400 only followed by i.p. allantoxanamide. The normal group mice were administered PEG400 only followed by i.p. CMC-Na only. Food and water were withheld overnight prior to the study. Whole blood samples were collected from mice through orbital vein bleeding at the end of the study. The mice were anaesthetized with diethyl ether inside a chamber. The blood was allowed to clot for 1 h at room temperature and then centrifuged at 2350×g for 4 min to obtain the serum. The serum was kept on ice and assayed immediately. Serum uric acid was determined with the phosphotungstate method, as known to those of skill in the art.
# [8] = tested on: C57BL/6 mice
# Description: Each mouse was monitored for general health conditions on a daily basis for 28 days, including examination of mortality, body weights, and behavior of the mice.
# [9] = Superoxide scavenging assay (xanthine-xanthine oxidase system, NBT reduction); conditions: 20 μM
# Method: Superoxide scavenging assay—Superoxide (O2^−•) scavenging activity was assayed in the xanthine-xanthine oxidase system and determined by the inhibition of the reduction of nitro blue tetrazolium (NBT) to form blue formazan which has an absorption at 560 nm. The final concentrations of reagents used in the assay are as follows: 16.8 mU xanthine oxidase, 25 μM xanthine, 50 μM NBT, and 0.1 M phosphate buffer (pH 8.5). […] The abilities of polyphenols to scavenge O2^−• were compared with that of GSH.
# T1 sequence (P80457 whole entry): as above
smiles,measurement,setting,value
"O=C(O)c1cc(O)c(O)c([N+](=O)[O-])c1 [3,4-dihydroxy-5-nitrobenzoic acid]",inhibitory effect on XO of the product of DHNB conversion,[1]; room temperature,no inhibitory effect on XO
"O=Cc1cc(O)c(O)cc1[N+](=O)[O-] [DH6NB, 3,4-Dihydroxy-6-nitrobenzaldehyde]",scavenging effect on ONOO−,[2],strong scavenging effect on ONOO^−
same,IC50,[3],96 µM
same,ability to inhibit XO at a concentration of 20 μM,[3],had inhibitory effects on XO
same,influence of pre-incubation with XO on XO inhibition,[3]; then 50 μM xanthine,pre-incubation also affected the XO inhibition
same,HOCl scavenging effect,[4],weak scavenging effect on HOCl
same,DPPH scavenging effect,[5],as strong of a DPPH scavenging effect as vitamin C
"O=Cc1ccc(O)c(O)c1 [DHB-CHO, 3,4-dihydroxybenzaldehyde]",scavenging effect on ONOO−,[2],strong scavenging effect on ONOO^−
same,concentration and pre-incubation time dependence of XO inhibition,[3],not concentration dependent but instead was pre-incubation time dependent
same,ability to inhibit XO at a concentration of 20 μM,[3],had inhibitory effects on XO
same,influence of pre-incubation with XO on XO inhibition,[3]; then 50 μM xanthine,pre-incubation also affected the XO inhibition
same,HOCl scavenging effect,[4],weak scavenging effect on HOCl
same,DPPH scavenging effect,[5],as strong of a DPPH scavenging effect as vitamin C
"O=C(O)c1ccc(O)c(O)c1 [DHB-COOH, 3,4-dihydroxybenzoic acid, reference compound]",ability to inhibit XO at a concentration of 20 μM,[3],no effect on XO
same,influence of pre-incubation with XO on XO inhibition,[3]; then 50 μM xanthine,did not show any inhibitory effect
"O=Cc1cc(O)c(O)c([N+](=O)[O-])c1 [DHNB, 3,4-Dihydroxy-5-nitrobenzaldehyde]",scavenging effect on ONOO−,[2],strong scavenging effect on ONOO^−
same,lowest published lethal dose,[6],312 mg/kg
same,serum urate levels,[7]; in 2 hours,significantly lowered
same,serum urate levels,[7]; in 4 hours,just slightly higher than the normal level
same,IC50,[3],3 µM
same,pH dependence of XO inhibition,[3],neutral or slightly acidic solutions benefit the inhibition
same,ability to inhibit XO at a concentration of 20 μM,[3],had inhibitory effects on XO
same,time course of XO inhibition,[3],time-dependent inhibition
same,"Dixon plot, steady-state kinetic study of XO inhibition","[3]; concentration of DHNB fixed, increasing xanthine, 1 min pre-incubation",initial rates did not change with increasing xanthine concentrations
same,influence of pre-incubation with XO on XO inhibition,[3]; then 50 μM xanthine,significantly increased the inhibition
same,XO activity after pre-incubation with inhibitor for 20 h,[3],XO activity was recovered
same,reversibility of XO inhibition,[3]; tested condition,irreversible XO inhibitor
same,hair loss of pups of treated mice,"[8]; mouse, in vivo",not observed
same,"histology analysis for the liver, kidney, and heart versus control mice","[8]; mouse, in vivo",did not show any difference
same,HOCl scavenging effect,[4],moderate scavenging effect
same,duration of inhibition of XO activity,"[1]; 30 μM DHNB with 15 mU/ml (30 nM) XO, phosphate buffer pH 7.4",up to 20 h
same,decay rate of DHNB with XO,"[1]; 30 μM DHNB, 30 nM XO, phosphate buffer, pH dependent (higher pH faster), absorption at 327 nm",~10^−10 mol/L/s
same,conversion of inhibitor by XO after 20 h,[1],converted to DHNB-COOH completely
same,stability without XO,[1]; without XO,very stable
same,DPPH scavenging effect,[5],as strong of a DPPH scavenging effect as vitamin C
"O=[N+]([O-])c1cc(CO)cc(O)c1O [DHNB-CH2OH, reference compound]",ability to inhibit XO at a concentration of 20 μM,[3],no effect on XO
same,influence of pre-incubation with XO on XO inhibition,[3]; then 50 μM xanthine,did not show any inhibitory effect
"COc1ccc(CO)cc1OC [DMB-CH2OH, 3,4-dimethoxybenzyl alcohol, reference compound]",ability to inhibit XO at a concentration of 20 μM,[3],no effect on XO
same,influence of pre-incubation with XO on XO inhibition,[3]; then 50 μM xanthine,did not show any inhibitory effect
"O=Cc1cc([N+](=O)[O-])cc([N+](=O)[O-])c1O [DNSA, 3,5-dinitrosalicylaldehyde]",influence of pre-incubation of DNSA with XO on XO activity,"[3]; 20 nM XO and 20 μM DNSA pre-incubated 0-10 min, then 50 μM xanthine, steady-state rate",strongly inhibited XO activity
same,XO activity after pre-incubation with inhibitor for 20 h,[3],no XO activity at all
same,conversion of inhibitor by XO after 20 h,[1],not converted
"O.O=Cc1cc(O)c(O)c(O)c1 [THB-CHO, 3,4,5-trihydroxybenzaldehyde hydrate]",scavenging effect on superoxide,[9],strong scavenging effects on superoxide
same,scavenging effect on ONOO−,[2],strong scavenging effect on ONOO^−
same,"IC50 value, inhibition of XO activity","[3]; 20 nM XO, 50 μM xanthine, phosphate buffer pH 7.4, 25° C., initial rate of uric acid formation",too high to determine
same,ability to inhibit XO at a concentration of 20 μM,[3],had inhibitory effects on XO
same,influence of pre-incubation with XO on XO inhibition,[3]; then 50 μM xanthine,pre-incubation also affected the XO inhibition
same,HOCl scavenging effect,[4],stronger HOCl scavenging effect than that of vitamin C
same,DPPH scavenging effect,[5],as strong of a DPPH scavenging effect as vitamin C
"COc1cc(C=O)ccc1O [Vanillin, reference compound]",ability to inhibit XO at a concentration of 20 μM,[3],no inhibition on XO activity
same,influence of pre-incubation with XO on XO inhibition,[3]; then 50 μM xanthine,did not show any inhibitory effect
NC(=O)c1nc(=O)[nH]c(=O)[nH]1 [allantoxanamide],serum urate level,"[7]; 1 h after 200 mg/kg allantoxanamide i.p., normal mice 2 mg/dl",5.4 mg/dL
same,serum urate level,[7]; 2 h after 200 mg/kg allantoxanamide i.p.,9.5 mg/dL
same,serum urate level,[7]; 3 h after 200 mg/kg allantoxanamide i.p.,13.3 mg/dL
same,serum urate level,[7]; 4 h after 200 mg/kg allantoxanamide i.p.,16.4 mg/dL
Oc1ncnc2[nH]ncc12 [allopurinol],serum urate level,[7]; same condition as DHNB (100 mg/kg oral before allantoxanamide),significantly lowered the serum urate level close to the normal level
same,time course of XO inhibition,[3],time-dependent inhibition
same,pups of surviving mice that died in two days,"[8]; 500 mg/kg, total 19 pups",eight
same,mice died within 3 days,"[8]; C57BL/6, mouse, in vivo",5
same,hair loss of pups of treated mice,"[8]; mouse, in vivo",lost most of the back hair
same,DPPH scavenging effect,[5],no scavenging effect on DPPH
"O=C(O)/C=C/c1ccc(O)c(O)c1 [caffeic acid, reference compound]",scavenging effect on ONOO−,[2],strong scavenging effect on ONOO^−
"O=C(O)c1cc(O)c(O)c(O)c1 [gallic acid, reference compound]",scavenging effect on ONOO−,[2],strong scavenging effect on ONOO^−
same,ability to inhibit XO at a concentration of 20 μM,[3],no effect on XO
same,influence of pre-incubation with XO on XO inhibition,[3]; then 50 μM xanthine,did not show any inhibitory effect

# — patent US9580379B2, “Xanthine oxidase inhibitors and methods of use” (Baylor College of Medicine, priority 2014, dated 2017)
